We go through four compounds from patent US5260275A, “Hypoglycemics” (Amylin Pharmaceuticals, Inc., priority 1990, dated 1993).

The subject of test [1] is isolated rat islets of Langerhans. Kind of test: Glucose-stimulated insulin secretion from isolated rat islets of Langerhans. As to conditions: substance 650 nmol/L; glucose 10 mmol/L. It is filed as cell-based. As for the experimental part:
The following experiments illustrate the fact that subpeptides of amylin can act to reduce the amount of insulin produced by isolated islets of Langerhans in response to a standard glucose challenge. Similar results have been obtained using whole amylin. All experiments were performed by known methods used in experimental practice. See, e.g., Lacey P. E., and Kostianovsky M., Method for the Isolation of Intact Islets of Lanaerhans from the Rat Pancreas. Diabetes 1967; 16:35-39.
Briefly, rats were killed, and islets of Langerhans were isolated from their pancreases. Experiments were performed either with freshly isolated islets or after overnight incubation of islets (23 h) in standard culture medium and conditions at 37° C. Synthetic amylin peptide 27-37 or synthetic calcitonin gene related peptide (CGRP) was dissolved in a 1.0 mmol/L citric acid/sodium citrate buffer, pH 3.0, and the concentration of the amylin 27-37 was verified by quantitative amino acid analysis. See, e.g., Cooper G. J. S. et al., Proc Natl Acad Sci USA 1987; 84:8628-8632. […] Stimulation of islets was carried out at the standard stimulatory glucose concentration of 10 mmol/L.
Production of insulin is expressed as μU/islet/h. All experiments were performed with five replicates per point. The integrity of the islet response was assessed by comparing the responses after stimulation of different aliquots of islets by two and ten mmol/L glucose, respectively, and the strength of the inhibitory response was judged against that induced by 1 μg/ml (650 nmol/L) somatostatin. Somatostatin is a 14 amino acid peptide which is a known, potent inhibitor of the insulin secretory response of islet B-cells to glucose. Arimura A. Biomed res1981; 2:233-257. […] Petterson M., Ahren B., Bottcher G., Sundler F., Endocrinology 1986; 119:865-869.
The results are shown in TABLE 5 below and all results are expressed as standard error of the mean (s.e.m.). The significance of differences between the means of groups is assessed by the t-test. The result of stimulation by 10 mmol/L glucose is compared with the results of stimulation at 2 mmol/L glucose. In all other experimental conditions, the significance of the inhibitory effect is measured against the effect of 10 mmol/L glucose alone.

For test [2], the system named is HIT T-15 cells. The experiment in a line: Insulin release from HIT T-15 cells. It is filed as cell-based, hamster. How it is done:
(§1) HIT T-15 cells (HIT cells; American Type Tissue Collection, Rockville, MD; R. F. Santerre, et al. (1981) Proc. Nat. Acad. Sci. USA 78, 4339-4343.) were subcultured weekly in Ham's F-12 medium (Irvine Scientific, Santa Ana, Calif.) containing 10% horse serum (Gemini Bioproducts, Calabasas, Calif.), 2.5% fetal bovine serum (FBS; Gemini), 2 mM L-glutamine, and 10.0 mM glucose. Cells were maintained at 37° C. and 5% CO2 / 95% humidified air and medium was replaced every 2 to 3 days. All experiments were performed with cells from passages 66 to 71.
(§2) Amylin and insulin secretion were measured using reagents of analytical grade unless otherwise indicated. The secretion medium was a Krebs-Ringer buffer (KRB) containing 119 mM NaCl, 4.74 mM KCl, 2,54 mM CaCl2, 1.19 mM MgSO4, 1.19 mM KH2 PO4, 25 mM NaHCO3, 10 mM HEPES and 0.1% protease-free bovine serum albumin (Cohn fraction V; Sigma Chemical Co., St. Louis Mo.) at pH 7.4. Glibenclamide (Sigma) was initially dissolved in ethanol (50 mg/ml) then diluted to working concentrations in KRB. […] Tolbutamide (Sigma) was initially dissolved in dimethylsulfoxide (50 mg/ml). […] Metformin (Sigma) was diluted in KRB.
(§3) Five days before each secretion study cells were subcultured at 0.26×10^6 cells/0.8 ml medium/well in 24-well tissue culture plates (Corning Glass Works, Corning N.Y.). Medium was replaced on day 3. On day 5 cells were washed twice with 1.0 ml KRB then incubated in 1.0 ml KRB (30 minutes, 37° C.) in equilibrium with air. Cells were washed twice more prior to addition of 0.5 ml KRB containing the indicated concentrations of glucose, metformin, tolbutamide and glibenclamide. After a 60 minute incubation with test substance or substances, supernatants were centrifuged (5 minutes, 500×g, 5° C.; GPKR centrifuge, Beckman Instruments, Inc., Palo Alto, Calif.) to remove cell debris, then stored in polypropylene micro test tubes (Brinkman Instrument Co., Westbury, N.Y.) at -20° C. until analyzed by radioimmunoassay. Supernatants were analyzed for insulin and amylin content within one week of collection. Three wells per plate were randomly selected for cell quantitation. Cells were incubated with 75 μg trypsin and 30 μg EDTA in 150 μl normal saline (8 minutes, 37° C.), then counted on a Coulter Counter (Model Zf, Coulter Electronics, Hialeah, Fla.).
(§4) Immunoreactive insulin content in supernatants was measured using a commercial radioimmunoassay (IM.78; Amersham, Arlington Heights, Ill.). […] The radioimmunoassay for immunoreactive amylin was as follows. Assay diluent was phosphate-buffered saline (PBS; 137 mM NaCl, 2.68 mM KCl, 1.47 mM KH2 PO4, 6.65 mM Na2 HPO4) containing 0.1% Triton-X 100 (v/v), 0.01% NaN3 (w/v), and 0.1% gelatin (v/v; teleostean, 45% aqueous solution, Sigma) at pH 7.4. All incubations were performed at 4° C. ^125 I-[Tyr 37]-human synthetic amylin tracer was iodinated by the chloramine-T method and purified on a C18 Sep-Pak (Waters Associates, Milford, Mass.). Specific activity was approximately 500 μCi/μg.
Data in FIGS. 3 and 4 are shown as the mean±S.D. of 4 replicate samples. An unpaired Student's t-test was used to compare secretion in the absence and presence of hypoglycemic agent (Statview 512+ program; Brain Power, Inc., Calabasas, Calif.).
(§5) HIT T-15 cells (HIT cells; American Type Tissue Collection, Rockville, Md.) were subcultured weekly in Ham's F-12 medium (Irvine Scientific, Santa Ana, Calif.) containing 10% horse serum (Gemini Bioproducts, Calabasas, Calif.), 2.5% fetal bovine serum (FBS; Gemini), 2 mM L-glutamine, 10^5 IU penicillin G/1, 100 mg streptomycin/1 and 10.0 mM glucose. Cells were maintained at 37° C. and 5% C02/ 95% humidified air and medium was replaced every 2 to 3 days. All experiments were performed with cells from passages 62 to 71.

Test [3] concerns HIT T-15 cells. The experiment in a line: Amylin release from HIT T-15 cells. It is filed as cell-based, hamster. As for the experimental part: as §1, §2, §3, §4
Standards and unknowns were run in triplicate or duplicate respectively. After an 18 hour incubation, 100 μl of tracer containing 20,000 dpm was added and samples were incubated an additional 18 hours. To ensure complete immunoprecipitation of amylin:antibody complexes, 100 μl of rabbit gamma globulin (0.35 mg/ml, Scantibodies Laboratory, Santee, Calif.) and 100 μl of goat anti-rabbit gamma globulin (0.50 mg/ml, purified grade; Scantibodies) were added. After a 15 minute incubation, 1.0 ml 2% polyethylene glycol (w/v. MW 8,000; Sigma) in assay buffer was added and samples were centrifuged (30 minutes, 1500×g, 5° C.). Samples were decanted and pellets were counted on a gamma counter (model 1277; LKB Wallac, Turku, Finland).
Data in FIGS. 3 and 4 are shown as the mean±S.D. of 4 replicate samples.

Test [4] deals with HIT T-15 cells. The experiment in a line: Amylin/insulin (A/I) secretion ratio of HIT T-15 cells. It is filed as cell-based, hamster. As for the experimental part:
as §5
Five days before each secretion study, cells were subcultured at 0.26×10^6 cells per 0.8 ml medium per well in 24-well tissue culture plates. Medium was replaced on day 3. On day 5 cells were washed twice with […] 1.0 ml Krebs-Ringer buffer (KRB) containing 119 mM NaCl, 4.74 mM KCl, 2.54 mM CaCl2, 1.19 mM KH2 PO4, 25 mM NaHCO3, 10 mM HEPES and 0.1% protease-free bovine serum albumin (Cohn fraction V; Sigma Chemical Co., St. Louis Mo.) at pH 7.4. After washing 1.0 ml KRB was added and plates were incubated for 30 minutes at 37° C. in equilibrium with air. […] After a 60 minute incubation with test substance, supernatants were centrifuged to remove cell debris, then stored at -20° C. Supernatants were analyzed for insulin and amylin content by radioimmunoassay within one week of collection. Three wells per plate were trypsinized and cells per well were quantitated using a Coulter Counter (Model Zf, Coulter Electronics, Hialeah, Fla.). Data are expressed as the percentage change in pmoles of hormone released/10^6 cells, relative to controls (absence of test substance) or as the moles of amylin released/mole of insulin/10^6 cells/hour (A/I ratio).
Immunoreactive insulin content in supernatants was measured using a commercial radioimmunoassay (IM.78; Amersham, Arlington Heights, Ill.). Human insulin standards were prepared in KRB. […] The radioimmunoassay for immunoreactive amylin was as described in Example 7 above.

Test [5] addresses T1, insulin receptor on red blood cells (Homo sapiens, UniProt P06213).
T1 construct: endogenous in cells; host or cells: red blood cells
Kind of test: Displacement of insulin from its receptor on red blood cells. The test is classed as binding.

Where [6] appears, read: cells challenged with 10 mM glucose plus 15 mM arginine.
[7] abbreviates: 10 mM glucose or 15 mM arginine alone or in combination, n=3.

As to `C[C@H](N)C(=O)NCC(=O)N[C@H]1CSSC[C@@H](C(=O)O)NC(=O)[C@H](CO)NC(=O)[C@H]([C@@H](C)O)NC(=O)[C@H](Cc2ccccc2)NC(=O)[C@H]([C@@H](C)O)NC(=O)[C@H](CCCCN)NC(=O)[C@H](Cc2c[nH]c3ccccc23)NC(=O)[C@H](Cc2ccccc2)NC(=O)[C@H](Cc2ccccc2)NC(=O)[C@H](CC(N)=O)NC(=O)[C@H](CCCCN)NC1=O` [Somatostatin], in test [1], the Insulin production was determined as 44 μU/islet/hr and the “Relative insulin secretion inhibition (percentage by which insulin production is reduced from control)” value is on record as 45%. The “Effect on insulin release (in words)” value in the test with HIT T-15 cells [2] (setting [6]) was “suppressed both amylin and insulin release”. Besides, the “Effect on amylin release (in words)” value in the test on HIT T-15 cells [3] (setting [6]) is “suppressed both amylin and insulin release”. The A/I ratio with HIT T-15 cells [4] (over the somatostatin concentration range tested, 10 mM glucose plus 15 mM arginine) is 0.36±0.02.

On to `N=C(N)NCCC[C@H](N)C(=O)O` [arginine], for which the “Effect on insulin secretion (in words)” value in the test with HIT T-15 cells [2] (increasing arginine, 60 min) was “stimulated amylin and insulin secretion in a dose-dependent manner”. Moreover, in the test on HIT T-15 cells [3] (increasing arginine, 60 min), the “Effect on amylin secretion (in words)” value is “stimulated amylin and insulin secretion in a dose-dependent manner”. In addition, the A/I ratio in the test with HIT T-15 cells [4] (setting [7]) stood at 0.41±0.05. Also, in the test on HIT T-15 cells [4] (over the arginine concentration range tested), the “Mean A/I ratio” value came to 0.44±0.02.

A word on the EC50: it is the concentration at which the effect is half-maximal. For the compound `O=C[C@H](O)[C@@H](O)[C@H](O)[C@H](O)CO` [glucose], in the test with HIT T-15 cells [2] (10 mM glucose, control (no drug) conditions), the “Increase in insulin secretion” value is recorded as 4 to 5 fold. For the same compound, the “Concentration of maximum insulin secretion” value with HIT T-15 cells [2] (60 min incubation) is recorded as 20 mM. The concentration giving a half-maximal response (EC50) in the test on HIT T-15 cells [2] (Mesocricetus auratus, HIT-T15, 1 h, 60 min incubation, read-out: Half-maximal response (EC50), insulin secretion) was approximately 2000 µM; in the test on HIT T-15 cells [3] (Mesocricetus auratus, HIT-T15, 1 h, 60 min incubation, read-out: Half-maximal response (EC50), amylin secretion), approximately 2000 µM. Moreover, in the test on HIT T-15 cells [3] (10 mM glucose, control conditions), the “Increase in secretion of amylin” value lay in the range of 2.5 to 4 fold. Besides, the “Concentration of maximum amylin secretion” value in the test with HIT T-15 cells [3] (60 min incubation) was found to be 20 mM. Moreover, in the test on HIT T-15 cells [4] (setting [7]), the A/I ratio turned out to be 0.32±0.01.

As for “amylin: 37-residue peptide hormone from pancreatic amyloid; preparation not specified at this place (KCNTATCATQRLANFLVHSSNNFGAILSSTNVGSNTY; Islet amyloid polypeptide; UniProt P10997 34-70, looked up)”, the “Displacement of insulin from its receptor (in words)” value in test [5] was “not capable of significantly displacing insulin”.
